{"source": "patent US6593454B2", "about": "“Methods for identifying inhibitors of methionine aminopeptidases” (Saint Louis University, priority 1999, dated 2003)", "key": {"type 1 MAP": {"biological_target": "type 1 MAP (Saccharomyces cerevisiae, UniProt Q01662)", "sequence (Q01662 whole entry)": "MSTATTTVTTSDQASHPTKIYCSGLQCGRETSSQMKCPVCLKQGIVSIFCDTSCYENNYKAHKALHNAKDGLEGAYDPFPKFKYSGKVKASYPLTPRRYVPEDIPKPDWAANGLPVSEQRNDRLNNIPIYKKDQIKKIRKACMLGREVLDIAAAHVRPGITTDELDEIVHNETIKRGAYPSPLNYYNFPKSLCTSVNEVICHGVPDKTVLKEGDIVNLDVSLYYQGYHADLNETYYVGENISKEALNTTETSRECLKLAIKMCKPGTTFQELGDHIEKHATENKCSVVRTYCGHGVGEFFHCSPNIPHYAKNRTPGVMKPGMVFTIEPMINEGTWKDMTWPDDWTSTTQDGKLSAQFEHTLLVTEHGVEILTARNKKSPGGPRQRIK", "test": "Coupled MAP/dipeptidyl peptidase IV assay, release of p-nitroanilide at 405 nm, type 1 MAP inhibition", "format": "biochemical, yeast", "procedure": "(§1) MAP activity was next determined by monitoring the release of p-nitroanilide in a microtiter format. Purified type 1 MAP or type 2 MAP (0.6 μg) and/or 0.001 unit of dipeptidyl peptidase IV was added in 47 μl of buffer H (10 mM Hepes, pH 7.4, 10% glycerol), containing 0.1 M KCl and 0.1 mM of Co^2+ in wells of a 96-well microtiter plate. After incubating at 37° C. for 5 min, 2 mM of Met-Gly-Pro-p-nitroanilide was added to the mixture to start the reaction. A microtiter plate reader, set at 405 nm to detect released p-nitroanilide, was used to record the progress of the reactions. […] These curves are highly reproducible and linear, with correlation coefficients (r^2)>0.98.\n(§2) After incubating the inhibitor with MAP solutions at 37° C. for 10 min, 2 mM of Met-Gly-Pro-p-nitroanilide was added to start the reaction, and the release of p-nitroanilide was monitored with a microtiter plate reader at 405 nm as described above. The effect of fumigillin on dipeptidyl peptidase IV activity was also tested by using Gly-Pro-p-nitroanilide as the substrate."}, "type 2 MAP": {"biological_target": "type 2 MAP (Homo sapiens, UniProt P50579)", "sequence (P50579 whole entry)": "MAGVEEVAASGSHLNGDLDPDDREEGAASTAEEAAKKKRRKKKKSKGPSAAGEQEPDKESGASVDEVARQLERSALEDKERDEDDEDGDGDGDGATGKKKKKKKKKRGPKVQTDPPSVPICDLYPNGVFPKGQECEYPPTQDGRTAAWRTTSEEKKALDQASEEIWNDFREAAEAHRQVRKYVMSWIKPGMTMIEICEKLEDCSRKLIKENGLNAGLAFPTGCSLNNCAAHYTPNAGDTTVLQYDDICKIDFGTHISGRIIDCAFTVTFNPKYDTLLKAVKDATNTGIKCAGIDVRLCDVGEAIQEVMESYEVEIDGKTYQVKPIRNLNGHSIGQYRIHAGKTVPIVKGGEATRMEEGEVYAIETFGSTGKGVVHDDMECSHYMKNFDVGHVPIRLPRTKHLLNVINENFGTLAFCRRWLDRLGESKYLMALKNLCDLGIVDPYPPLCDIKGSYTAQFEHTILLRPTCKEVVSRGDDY", "test": "Coupled MAP/dipeptidyl peptidase IV assay, release of p-nitroanilide at 405 nm, type 2 MAP inhibition", "format": "biochemical", "procedure": "as §1, §2"}, "dipeptidyl peptidase IV": {"biological_target": "dipeptidyl peptidase IV (Homo sapiens, UniProt P27487)", "sequence (P27487 whole entry, species assumed)": "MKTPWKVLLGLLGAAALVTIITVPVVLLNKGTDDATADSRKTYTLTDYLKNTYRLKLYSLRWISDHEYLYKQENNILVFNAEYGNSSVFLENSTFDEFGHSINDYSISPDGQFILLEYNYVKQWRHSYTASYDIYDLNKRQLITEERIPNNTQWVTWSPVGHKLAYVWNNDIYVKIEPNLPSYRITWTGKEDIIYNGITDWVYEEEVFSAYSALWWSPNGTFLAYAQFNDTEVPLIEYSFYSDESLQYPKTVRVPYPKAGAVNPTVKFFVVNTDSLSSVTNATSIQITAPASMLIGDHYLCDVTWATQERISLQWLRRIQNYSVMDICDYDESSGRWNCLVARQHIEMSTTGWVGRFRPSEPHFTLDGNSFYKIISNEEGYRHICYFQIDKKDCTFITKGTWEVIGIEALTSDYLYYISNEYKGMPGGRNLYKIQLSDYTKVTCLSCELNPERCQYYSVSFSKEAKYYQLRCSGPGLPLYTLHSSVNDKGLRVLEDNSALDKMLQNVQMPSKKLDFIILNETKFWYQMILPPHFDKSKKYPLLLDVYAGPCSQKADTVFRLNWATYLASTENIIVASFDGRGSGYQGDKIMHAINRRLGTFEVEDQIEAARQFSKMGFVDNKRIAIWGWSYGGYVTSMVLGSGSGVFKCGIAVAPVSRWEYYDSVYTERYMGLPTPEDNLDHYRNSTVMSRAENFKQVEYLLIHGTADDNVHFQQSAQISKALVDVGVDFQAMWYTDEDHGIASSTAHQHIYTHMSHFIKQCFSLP", "test": "Dipeptidyl peptidase IV control assay with Gly-Pro-p-nitroanilide as substrate", "format": "biochemical", "procedure": "as §1, §2"}, "[1]": {"conditions": "FIG. 3 legend, dipeptidyl peptidase IV and Met-Gly-Pro-p-nitroanilide, no concentration stated"}}, "data": [{"smiles": "CO[C@@H]1[C@H](OC(=O)/C=C/C=C/C=C/C=C/C(=O)O)CC[C@]2(CO2)[C@H]1[C@@]1(C)O[C@@H]1CC=C(C)C", "note": "[fumagillin]", "values": [{"measurement": "type 1 MAP activity", "setting": "type 1 MAP; 50 nM inhibitor, 10 min preincubation at 37° C., 2 mM Met-Gly-Pro-p-nitroanilide, FIG. 3", "result": "remained unaffected"}, {"measurement": "release of p-nitroanilide when type 1 MAP was used", "setting": "type 1 MAP; [1]", "result": "not"}, {"measurement": "type 2 MAP activity", "setting": "type 2 MAP; 20 nM inhibitor, 10 min preincubation at 37° C., 2 mM Met-Gly-Pro-p-nitroanilide, FIG. 3", "result": "completely inhibited"}, {"measurement": "release of p-nitroanilide when type 2 MAP was used", "setting": "type 2 MAP; [1]", "result": "strongly inhibited"}, {"measurement": "dipeptidyl peptidase IV activity", "setting": "dipeptidyl peptidase IV; 50 nM inhibitor, Gly-Pro-p-nitroanilide as substrate, FIG. 3", "result": "remained unaffected"}, {"measurement": "release of p-nitroanilide when dipeptidyl peptidase IV was used with Gly-Pro-p-nitroanilide", "setting": "dipeptidyl peptidase IV; FIG. 3 legend, no concentration stated", "result": "not"}]}]}
